# Values of other authors in patent US10314873B2, “Method of treatment of diseases using hoodia extracts” (HADASIT MEDICAL RESEARCH SERVICES & DEVELOPMENT LTD., priority 2008, dated 2019).
# Experiments:
# hypothalamic neurons = conditions: icv injection of purified P57
# Liver = conditions: P57 studies
smiles,measurement,setting,value
"C/C=C(\C)C(=O)O[C@@H]1C[C@H]2[C@@H](CC=C3C[C@@H](O[C@H]4C[C@H](OC)[C@H](O[C@H]5C[C@H](OC)[C@H](O[C@@H]6O[C@H](C)[C@@H](O)[C@H](OC)[C@H]6O)[C@@H](C)O5)[C@@H](C)O4)CC[C@@]32C)[C@@]2(O)CC[C@H](C(C)=O)[C@@]12C [P57, (3β,12β,14β)-3-[(O-6-Deoxy-3-O-methyl-β-D-glucopyranosyl-(1→4)-O-2,6-dideoxy-3-O-methyl-β-D-ribohexopyranosyl-(1→4)-2,6-dideoxy-3-O-methyl-β-D-ribo-hexopyranosyl)oxy]-14-hydroxy-12-[[(2E)-2-methyl-1-oxo-2-butenyl]oxy]pregn-5-en-20-one]",increase of ATP content in hypothalamic neurons,hypothalamic neurons,50-150%
same,reduction of liver ATP content,Liver,about 60%
